Data: US9937227B2, “Humanin, analogs and cancer treatment methods and uses thereof” (LOS ANGELES BIOMEDICAL RESEARCH INSTITUTE AT HARBOR-UCLA …, priority 2014, dated 2018)
Where two headings read alike, the source gives them in different places.

Key:
B16 melanoma cells = type: cell-based
Excerpt: Furthermore, the autophagy induction of humanin may be related to its apparent effects of enhancing longevity observed in other systems.

male germ cells [1] = test system: male germ cells
testosterone = details: with or without EDS pre-treatment
Leydig cells [2] = assay: Histology of rat testes: Leydig cells; details: EDS for three days
Leydig cells [3] = assay: Testosterone of cultured Leydig cells treated with ketoconazole; type: cell-based, rat; details: KTZ 10 mcg/ml, 4 hours
Experimental: Leydig cells were isolated based on a previously described procedure (Gao, et al., 1996; Klinefelter, et al., 1987; Salva, et al., 2001). Briefly, the testes were decapsulated, and then dissociated with collagenase, dispase, DNase and shaking for 15 min at 34° C. The seminiferous tubules were removed by filtration through 40 μm nylon mesh (BD Falcon, Franklin Lakes, N.J.). Leydig cells were then harvested after centrifugation and purified using a Percoll gradient (GE Healthcare, Uppsala, Sweden) and centrifugation (60 minutes at 20,000 g at 4° C.). Enriched Leydig cells were harvested at densities between 1.065 (red) and 1.075 (blue) g/cm^3 from the percoll gradient. These Leydig cells were washed by diluting the percoll and excluding residual germ cells and other cells using a BSA density gradient with centrifugation. The purity of the Leydig cells was >90%, as determined by histochemical staining for 3β-hydroxysteroid dehydrogenase. The cell viability, as assessed by trypan blue exclusion, was greater than 90%. […]
Testosterone concentrations in plasma, testes, and culture medium were measured by a previously described radioimmunoassay (Lue, et al., 2010) with a minimal detection limit of 0.1 ng/ml. […]

male germ cells [4] = type: in vivo, mouse; details: middle stages
Experimental: Onco-infertility is a major concern of cancer survivors. In this study, it was investigated whether HNG will prevent chemotherapy (Temozolomide, TMZ, an alkylating agent used clinically to treat brain tumors) induced male germ cell apoptosis in SCID mice bearing subcutaneous implants of human medulloblastoma. DAOY human pediatric medulloblastoma cells (1.0×10^8 cells/animal) were injected subcutaneously into the right flank of 7-week old male SCID mice. After 3 weeks to allow tumor growth, each group of mice (n=4 to 5/group) received one of the following treatments: 1) vehicle (control); 2) HNG intra-peritoneal (IP) injection (HNG, 5 mg/Kg BW/day, 3 days pretreatment +5 days treatment); 3) TMZ IP injection (TMZ, 50 mg/Kg BW/day×5 days); 4) TMZ and HNG IP injections (TMZ+HNG). Mice were sacrificed 24 hours after the last injection, subcutaneous tumors were dissected and weighed (FIG. 26) and male germ cell apoptosis was assessed by TUNEL staining and quantified (Apoptosis Index, AI, number of apoptotic germ cell/Sertoli cell, FIG. 27). […] HNG ameliorated TMZ-induced germ cell apoptosis without affecting the chemotherapeutic effect on transplanted medulloblastoma tumor in an immunocompromised mouse model.

[5] = Table 1; cited from earlier work

In the case of `Cn1cnc(=N)c2[nH]cnc21` [3-MA], the “additive effect of humanin in doxorubicin treated B16 cells, with autophagy inhibitor” value (B16 melanoma cells) is reported as “diminished”.
For `CS(=O)(=O)OCCOS(C)(=O)=O` [EDS, ethane dimethanesulfonate], the “germ cell apoptosis compared to control” value (male germ cells [1]; early (I-VI) and late (IX-XIV) stages, EDS pre-treated) was “did not significantly increase”, the “germ cell apoptosis compared to control” value (male germ cells [1]; middle (VII-VIII) stages, EDS 80 mg/kg pre-treatment) was “significant acute cytotoxic effects” and the intratesticular testosterone levels (testosterone) was “decreased to very low levels”. The serum testosterone levels (testosterone) was “decreased to very low levels” and the “Leydig cells in the interstitial spaces compared to control” value (Leydig cells [2]) was “depletion of Leydig cells”.
For `CC(=O)N1CCN(c2ccc(OCC3COC(Cn4ccnc4)(c4ccc(Cl)cc4Cl)O3)cc2)CC1` (centres unmarked) [KTZ, ketoconazole], the “testosterone levels compared to control” value (Leydig cells [3]) was “lowered the testosterone levels significantly”.
For `Cn1nnc2c(C(N)=O)ncn2c1=O` [TMZ, Temozolomide], the “Apoptosis Index (AI, apoptotic germ cell/Sertoli cell)” value (male germ cells [4]) was 0.058±0.006.
For `CCN(CC)CCCC(C)Nc1ccnc2cc(Cl)ccc12` (centres unmarked) [chloroquine], the “additive effect of humanin in doxorubicin treated B16 cells, with autophagy inhibitor” value (B16 melanoma cells) was “diminished”.
In the case of MAPRGASCLLLLTSEIDLPVKRRA [HN-F6A], the “Cytoprotective Action” value [5] is listed as “Similar/more effective”.
For “MAPRGFSALLLLTSEIDLPVKRRA [HN-C8A, HN mutant, Cys8 to Ala]”, the “Cytoprotective Action” value [5] is listed as “Not effective, prevents”.
